Data: the NIST ThermoML archive (doi:10.1016/j.jct.2019.03.040)

What was measured:
[1] = Liquid; for Critical pressure / Critical temperature: Resistive pulse heating; for thermal diffusivity: 101.33 kPa, Laser flash apparatus
[2] = molar heat capacity at constant pressure; conditions: 101.33 kPa, Small sample (50 mg) DSC

CC(=O)CCC(=O)O [4-oxopentanoic acid]
[1]
Conditions	Critical pressure [kPa]	Critical temperature [K]
–	5310	766

[2], Metastable liquid
Conditions	molar heat capacity at constant pressure [J/K/mol]
302.62 K	245.93
303.12 K	246.16
303.62 K	246.05
304.12 K	246.28
304.62 K	246.16
305.12 K	246.51
305.62 K	246.4
306.12 K	246.86
306.62 K	246.86
307.12 K	246.86
307.62 K	246.86
308.12 K	246.98
308.62 K	247.44
309.12 K	247.09
309.62 K	247.33
310.12 K	247.44
310.62 K	248.02
311.12 K	247.91
311.62 K	247.91
312.12 K	247.91
312.62 K	247.91
313.12 K	247.56
313.62 K	247.91
314.12 K	248.25
314.62 K	248.37
315.12 K	248.49
315.62 K	248.83
316.12 K	248.95
316.62 K	249.53
317.12 K	249.65
317.62 K	249.76
318.12 K	250.46
318.62 K	250.23
319.12 K	250
319.62 K	250.34
320.12 K	250.11
320.62 K	250.46
321.12 K	250.34
321.62 K	250.46
322.12 K	250.58
322.62 K	250.46
323.12 K	251.16
323.62 K	251.04
324.12 K	251.27
324.62 K	251.51
325.12 K	251.27
325.62 K	251.39
326.12 K	251.74
326.62 K	252.2
327.12 K	251.85
327.62 K	251.85
328.12 K	251.85
328.62 K	252.09
329.12 K	252.32
329.62 K	251.85
330.12 K	252.55
330.62 K	252.55
331.12 K	252.67
331.62 K	253.25
332.12 K	253.6
332.62 K	253.83
333.12 K	254.06
333.62 K	254.29
334.12 K	254.06
334.62 K	254.18
335.12 K	254.41
335.62 K	254.41
336.12 K	254.87
336.62 K	254.64
337.12 K	255.11
337.62 K	255.45
338.12 K	255.22
338.62 K	255.22
339.12 K	255.57
339.62 K	255.8
340.12 K	256.03
340.62 K	256.5
341.12 K	256.73
341.62 K	257.08
342.12 K	257.43
342.62 K	257.54
343.12 K	257.66
343.62 K	257.89
344.12 K	257.89
344.62 K	257.31
345.12 K	257.43
345.62 K	257.54
346.12 K	257.89
346.62 K	258.24
347.12 K	258.59
347.62 K	258.7
348.12 K	258.59
348.62 K	258.82
349.12 K	258.94
349.62 K	258.82
350.12 K	258.94
350.62 K	259.17
351.12 K	259.17
351.62 K	259.29
352.12 K	260.21
352.62 K	260.1
353.12 K	259.87
353.62 K	260.33
354.12 K	260.45
354.62 K	259.75
355.12 K	260.21
355.62 K	260.45
356.12 K	260.79
356.62 K	260.79
357.12 K	260.56
357.62 K	260.79
358.12 K	260.45
358.62 K	260.56
359.12 K	261.03
359.62 K	260.68
360.12 K	260.79
360.62 K	261.03
361.12 K	261.38
361.62 K	261.61
362.12 K	261.96
362.62 K	262.07
363.12 K	262.07
363.62 K	262.07
364.12 K	262.88
364.62 K	262.77
365.12 K	263.12
365.62 K	263.7
366.12 K	264.39
366.62 K	264.39
367.12 K	263.93
367.62 K	263.47
368.12 K	263.12
368.62 K	263.12
369.12 K	263.47
369.62 K	263.47
370.12 K	263.7
370.62 K	263.7
371.12 K	263.93
371.62 K	264.05
372.12 K	264.28
372.62 K	264.05
373.12 K	264.28
373.62 K	264.28
374.12 K	264.51

CCCCOC(=O)CCC(C)=O [butyl levulinate]
[1]
Conditions	thermal diffusivity [m2/s]
303.15 K	7.77e-08
313.15 K	7.68e-08
323.15 K	7.57e-08
333.15 K	7.48e-08
343.15 K	7.37e-08
353.15 K	7.26e-08
363.15 K	7.15e-08
373.15 K	7.06e-08

[1]
Conditions	Critical pressure [kPa]	Critical temperature [K]
–	2410	692

[2], Liquid
Conditions	molar heat capacity at constant pressure [J/K/mol]
302.66 K	336.87
303.16 K	337.38
303.66 K	338.59
304.16 K	338.42
304.66 K	337.73
305.16 K	337.38
305.66 K	337.73
306.16 K	337.55
306.66 K	338.42
307.16 K	339.28
307.66 K	338.76
308.16 K	337.9
308.66 K	338.24
309.16 K	338.42
309.66 K	339.1
310.16 K	338.93
310.66 K	340.14
311.16 K	338.76
311.66 K	338.59
312.16 K	338.76
312.66 K	338.76
313.16 K	338.42
313.66 K	338.76
314.16 K	339.97
314.66 K	339.79
315.16 K	339.97
315.66 K	339.62
316.16 K	340.31
316.66 K	340.14
317.16 K	340.65
317.66 K	340.65
318.16 K	341.17
318.66 K	341
319.16 K	341.17
319.66 K	341
320.16 K	340.14
320.66 K	341.69
321.16 K	341.69
321.66 K	341
322.16 K	341
322.66 K	341.69
323.16 K	342.03
323.66 K	342.38
324.16 K	341.69
324.66 K	342.89
325.16 K	342.2
325.66 K	341.52
326.16 K	342.2
326.66 K	343.24
327.16 K	342.89
327.66 K	343.07
328.16 K	343.41
328.66 K	341.34
329.16 K	341.86
329.66 K	342.38
330.16 K	342.89
330.66 K	342.89
331.16 K	343.07
331.66 K	342.38
332.16 K	342.72
332.66 K	343.58
333.16 K	343.24
333.66 K	344.27
334.16 K	345.13
334.66 K	344.44
335.16 K	345.48
335.66 K	344.79
336.16 K	344.27
336.66 K	345.65
337.16 K	345.3
337.66 K	345.3
338.16 K	346.34
338.66 K	346.51
339.16 K	345.82
339.66 K	346.34
340.16 K	347.03
340.66 K	346.17
341.16 K	346.68
341.66 K	346.17
342.16 K	347.03
342.66 K	346.68
343.16 K	347.72
343.66 K	347.37
344.16 K	347.37
344.66 K	347.54
345.16 K	348.06
345.66 K	348.23
346.16 K	347.89
346.66 K	348.58
347.16 K	348.23
347.66 K	349.09
348.16 K	348.92
348.66 K	349.27
349.16 K	349.27
349.66 K	349.78
350.16 K	349.78
350.66 K	350.13
351.16 K	349.95
351.66 K	349.61
352.16 K	350.13
352.66 K	348.58
353.16 K	348.23
353.66 K	348.58
354.16 K	349.44
354.66 K	349.95
355.16 K	349.95
355.66 K	350.64
356.16 K	350.13
356.66 K	350.13
357.16 K	351.5
357.66 K	350.99
358.16 K	351.5
358.66 K	351.68
359.16 K	351.85
359.66 K	351.85
360.16 K	352.02
360.66 K	351.68
361.16 K	352.37
361.66 K	353.05
362.16 K	352.71
362.66 K	352.88
363.16 K	352.02
363.66 K	352.71
364.16 K	353.23
364.66 K	353.57
365.16 K	353.05
365.66 K	353.4
366.16 K	353.4
366.66 K	354.6
367.16 K	353.57
367.66 K	353.57
368.16 K	354.09
368.66 K	353.92
369.16 K	353.57
369.66 K	353.4
370.16 K	354.95
370.66 K	354.78
371.16 K	354.09
371.66 K	354.78
372.16 K	355.29
372.66 K	355.81
373.16 K	354.78
373.66 K	355.81
374.16 K	355.98
